Counter-ions that a name gives are not always drawn. Like-named read-outs stand apart in the source and are kept apart here.
What was measured:
KDR = KDR (Homo sapiens, UniProt P35968); assay: KDR inhibition of metabolites; assay type: biochemical; conditions: metabolites of Compound A
[1] = system: VEGF-induced rat corneal angiogenesis; assay: VEGF-induced rat corneal angiogenesis assay; assay type: in vivo; conditions: for Average # of Vessels: 7 days
Method: (§1) Tables 2 through 6 below describe the results obtained in the rat corneal in vivo model of angiogenesis for (1) reference compound (free base) 1, (2) Compound A (free base), and (3) the hydrochloride salt of Compound A. A VEGF-induced rat corneal angiogenesis assay was performed using the following procedure: • In Life Aspects: Female CD rats weighing approximately 250 grams were randomized into one of six treatment groups. On the day of surgery the rats were temporarily anesthetized using isoflurane. A vertical incision was made on the midline of the cornea and a pocket was created to separate the connective tissue layers of the stroma. The distance between the apex of the pocket and the limbus was approximately 1.8 mm. A presoaked nylon filter disk was inserted to the apex of the pocket (in the case of the control treatment group, the disks were soaked in a buffer containing bovine serum albumin; in the remaining treatment groups, the disks were soaked in buffer containing bovine serum albumin plus human VEGF to induce angiogenesis). The different treatment groups were then dosed daily with either vehicle (Ora Plus™, a commercially available vehicle) or a designated amount of test compound formulated in vehicle. • Study Termination and Analysis: After seven days, the rats were euthanized and the implanted corneas photographed using a Nikon SV-3 Ophthalmic Slit Lamp. Numerical data were generated from the digital images using the Metamorph image analysis system (Universal Imaging). Three endpoints were analyzed on each corneal image: (1) disk placement distance from the limbus, (2) number of vessels intersecting a perpendicular line at the midpoint of the disk placement distance, and (3) blood vessel area, as determined by thresholding and automated pixel counting. Only the number of blood vessels is shown in the tables as this endpoint correlated well with the blood vessel area. • Statistical Analysis: Results were analyzed with the StatView statistical program using one-way ANOVA, followed by Fisher's least significant difference test. Data are presented as mean±SE and P<0.05 was considered significant. AUC and ED50 values were calculated using methods well known in the art.

[2] = Exposure (AUC) in the rat corneal angiogenesis study; assay type: in vivo; conditions: female, CD, rat, in vivo
Method: as §1

[3] = Water absorption of the hydrous hydrochloride form; assay type: physicochemical; conditions: 90% relative humidity and 25° C.
Source text: The hydrochloride salt is formed by preparing a solution of Compound A free base in ethanol and adding hydrochloric acid in slight molar excess with stirring and optional heat. Spontaneous salt formation occurred both with and without the application of heating and cooling. The hydrochloride salt is known to exist in at least one anhydrous form, which has been confirmed by single-crystal X-ray analysis, and at least one hydrous form. The anhydrous form of the hydrochloride salt is crystalline and decomposes near 230° C. when heated at a rate of 10° C./minute. The hydrous form of Compound A hydrochloride has been obtained by suspending the anhydrous hydrochloride material in water or in dilute aqueous solutions of hydrochloric acid. The hydrous material is crystalline, can freely absorb up to 4 molar equivalents of water at 90% relative humidity and 25° C., and appears to fully dehydrate by 150° C. and decompose near 170° C. when heated at a rate of 10° C./minute. Both the anhydrous and hydrous forms of Compound A hydrochloride have unique X-ray powder diffraction patterns, the major peaks of which are described below: […]

HUVEC = assay: VEGF induced proliferation, HUVEC cell-based assay; conditions: Homo sapiens
[4] = Rat pharmacokinetic profile; conditions: in vivo
Source text: (§2) Table 7 provides additional information about the pharmacokinetic profiles of reference compound 1 and Compound A. The data contained in this table was obtained using methods well known in the art.

Rat Liver Microsome = assay: Rat liver microsome clearance; assay type: in vitro ADME; conditions: rat liver microsomes
Source text: as §2

Human Liver Microsome = assay: Human liver microsome clearance; assay type: in vitro ADME; conditions: human liver microsomes
Source text: as §2

KDR, sequence (P35968 20-1356, species assumed): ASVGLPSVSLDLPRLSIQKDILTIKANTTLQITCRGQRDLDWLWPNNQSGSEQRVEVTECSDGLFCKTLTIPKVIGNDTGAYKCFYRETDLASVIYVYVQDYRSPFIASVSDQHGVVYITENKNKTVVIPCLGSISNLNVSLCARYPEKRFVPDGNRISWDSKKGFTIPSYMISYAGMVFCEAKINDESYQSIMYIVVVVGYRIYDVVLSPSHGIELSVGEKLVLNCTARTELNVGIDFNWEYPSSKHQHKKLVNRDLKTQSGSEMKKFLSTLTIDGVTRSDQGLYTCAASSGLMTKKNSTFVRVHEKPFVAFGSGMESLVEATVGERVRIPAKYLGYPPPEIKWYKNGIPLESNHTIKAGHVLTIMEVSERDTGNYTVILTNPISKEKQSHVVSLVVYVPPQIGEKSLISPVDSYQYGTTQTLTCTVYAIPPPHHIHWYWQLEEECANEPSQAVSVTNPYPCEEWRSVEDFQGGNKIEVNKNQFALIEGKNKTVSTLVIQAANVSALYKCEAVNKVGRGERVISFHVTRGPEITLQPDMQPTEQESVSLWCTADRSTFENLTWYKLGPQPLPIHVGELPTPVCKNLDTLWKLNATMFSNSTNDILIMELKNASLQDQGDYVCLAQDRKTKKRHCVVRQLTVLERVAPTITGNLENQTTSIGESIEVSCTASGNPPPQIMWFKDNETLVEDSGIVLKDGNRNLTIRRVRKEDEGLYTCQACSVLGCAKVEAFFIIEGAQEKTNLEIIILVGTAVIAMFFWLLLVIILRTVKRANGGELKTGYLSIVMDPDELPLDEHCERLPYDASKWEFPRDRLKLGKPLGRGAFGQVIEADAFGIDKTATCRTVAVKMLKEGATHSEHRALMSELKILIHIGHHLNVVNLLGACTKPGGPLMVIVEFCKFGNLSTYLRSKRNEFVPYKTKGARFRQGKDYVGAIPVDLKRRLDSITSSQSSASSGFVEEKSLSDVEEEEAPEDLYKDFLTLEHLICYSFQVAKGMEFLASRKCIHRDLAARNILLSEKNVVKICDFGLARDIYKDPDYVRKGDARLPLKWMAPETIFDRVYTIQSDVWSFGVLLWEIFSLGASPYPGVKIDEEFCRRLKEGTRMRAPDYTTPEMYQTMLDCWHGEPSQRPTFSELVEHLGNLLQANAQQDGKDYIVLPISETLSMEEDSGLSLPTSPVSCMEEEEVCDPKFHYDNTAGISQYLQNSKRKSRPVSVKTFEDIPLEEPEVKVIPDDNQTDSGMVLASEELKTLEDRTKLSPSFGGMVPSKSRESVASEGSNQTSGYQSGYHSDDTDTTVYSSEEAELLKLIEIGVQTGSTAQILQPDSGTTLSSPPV

For `COc1cc2nccc(Oc3ccc4c(c3)OCCN4C(=O)Nc3cc(CO)on3)c2cc1OC` [7-(6,7-dimethoxyquinolin-4-yloxy)-N-(5-(hydroxymethyl)isoxazol-3-yl)-2,3-dihydrobenzo[b][1,4]oxazine-4-carboxamide hydrochloride], the IC50 (KDR) was 1.04 nM.

`COc1cc2nccc(Oc3ccc4c(c3)OCCN4C(=O)Nc3cc(C)on3)c2cc1O` [7-(6-hydroxy-7-methoxyquinolin-4-yloxy)-N-(5-methylisoxazol-3-yl)-2,3-dihydrobenzo[b][1,4]oxazine-4-carboxamide] gave an IC50 (KDR) of 1.68 nM.

With `COc1cc2c(Oc3ccc4c(c3)OCCN4C(=O)Nc3cc(C)on3)ccnc2cc1O` [7-(7-hydroxy-6-methoxyquinolin-4-yloxy)-N-(5-methylisoxazol-3-yl)-2,3-dihydrobenzo[b][1,4]oxazine-4-carboxamide] the IC50 (KDR) was 777 nM.

For `COc1cc2nccc(Oc3ccc4c(c3)OCCN4C(=O)Nc3cc(C)on3)c2cc1OC` [Compound A (HCl Salt)], the ED50 ([1]; Rattus norvegicus, Table 4, HCl salt Run # 1, number of vessels, read-out: ED50) was 0.04 mg/kg, the ED50 ([1]; Rattus norvegicus, Table 5, HCl salt Run #2, number of vessels, read-out: ED50) was 0.15 mg/kg and the “Average # of Vessels” value ([1]; Table 4, HCl salt Run # 1, VEGF disc + 0.03 mg/kg daily) was 15.3. The “Average # of Vessels” value ([1]; Table 4, HCl salt Run # 1, VEGF disc + 0.1 mg/kg daily) was 9.3, the “Average # of Vessels” value ([1]; Table 4, HCl salt Run # 1, VEGF disc + 0.3 mg/kg daily) was 4.3 and the “Average # of Vessels” value ([1]; Table 4, HCl salt Run # 1, VEGF disc + 1.0 mg/kg daily) was 0.4. For the same compound, the “Average # of Vessels” value ([1]; Table 5, HCl salt Run #2, VEGF disc + 0.01 mg/kg daily) was 28.9, the “Average # of Vessels” value ([1]; Table 5, HCl salt Run #2, VEGF disc + 0.03 mg/kg daily) was 25.5 and the “Average # of Vessels” value ([1]; Table 5, HCl salt Run #2, VEGF disc + 0.1 mg/kg daily) was 18.0. For the same compound, the “Average # of Vessels” value ([1]; Table 5, HCl salt Run #2, VEGF disc + 0.3 mg/kg daily) was 7.3, the “Average # of Vessels” value ([1]; Table 6, HCl salt Run #3, VEGF disc + 0.01 mg/kg daily) was 28.4 and the “Average # of Vessels” value ([1]; Table 6, HCl salt Run #3, VEGF disc + 0.03 mg/kg daily) was 32.0. For the same compound, the “Average # of Vessels” value ([1]; Table 6, HCl salt Run #3, VEGF disc + 0.1 mg/kg daily) was 15.4, the “Average # of Vessels” value ([1]; Table 6, HCl salt Run #3, VEGF disc + 0.3 mg/kg daily) was 4.8 and the AUC ([2]; 0.01 mg/kg, Table 5, HCl salt Run #2, 0.01 mg/kg daily) was 95.8 ng·h/mL. The AUC ([2]; 0.03 mg/kg, Table 4, HCl salt Run # 1, 0.03 mg/kg daily) was 162 ng·h/mL, the AUC ([2]; 0.03 mg/kg, Table 5, HCl salt Run #2, 0.03 mg/kg daily) was 272 ng·h/mL and the AUC ([2]; 0.1 mg/kg, Table 4, HCl salt Run # 1, 0.1 mg/kg daily) was 460 ng·h/mL. For the same compound, the AUC ([2]; 0.1 mg/kg, Table 5, HCl salt Run #2, 0.1 mg/kg daily) was 954 ng·h/mL, the AUC ([2]; 0.3 mg/kg, Table 4, HCl salt Run # 1, 0.3 mg/kg daily) was 1190 ng·h/mL and the AUC ([2]; 0.3 mg/kg, Table 5, HCl salt Run #2, 0.3 mg/kg daily) was 3900 ng·h/mL. It also gave an AUC ([2]; 1 mg/kg, Table 4, HCl salt Run # 1, 1.0 mg/kg daily) of 3640 ng·h/mL, an AUC ([2]; oral, 0.01 mg/kg, Table 6, HCl salt Run #3, 0.01 mg/kg daily) of 21.8 ng·h/mL and an AUC ([2]; oral, 0.03 mg/kg, Table 6, HCl salt Run #3, 0.03 mg/kg daily) of 80.2 ng·h/mL. The AUC ([2]; oral, 0.1 mg/kg, Table 6, HCl salt Run #3, 0.1 mg/kg daily) was 322 ng·h/mL, the AUC ([2]; oral, 0.3 mg/kg, Table 6, HCl salt Run #3, 0.3 mg/kg daily) was 677 ng·h/mL and the water absorbed [3] was “up to 4 molar equivalents of water”.

`COc1cc2c(Oc3ccc4c(c3)OCCN4C(=O)Nc3cc(C)on3)cc[n+]([O-])c2cc1OC` [Compound A N-oxide] gave an IC50 (KDR) of 5000 nM.

With `COc1cc2nccc(Oc3ccc4c(c3)OCCN4C(=O)Nc3ccon3)c2cc1OC` [Reference Compound 1, reference compound] the IC50 (HUVEC) was 7 nM, the ED50 ([1]; Rattus norvegicus, Table 2, free base, number of vessels, read-out: ED50) was > 0.3 mg/kg and the “Average # of Vessels” value ([1]; Table 2, free base, VEGF disc + 0.01 mg/kg daily) was 22.0. The “Average # of Vessels” value ([1]; Table 2, free base, VEGF disc + 0.03 mg/kg daily) was 25.4, the “Average # of Vessels” value ([1]; Table 2, free base, VEGF disc + 0.1 mg/kg daily) was 19.3 and the “Average # of Vessels” value ([1]; Table 2, free base, VEGF disc + 0.3 mg/kg daily) was 15.9. The ED50 ([1]; free base, review of Tables 2 and 3) was > 0.3 mpk, the AUC ([2]; oral, 0.03 mg/kg, Table 2, free base, 0.03 mg/kg daily) was 22.5 ng·h/mL and the AUC ([2]; oral, 0.1 mg/kg, Table 2, free base, 0.1 mg/kg daily) was 68.5 ng·h/mL. It also gave an AUC ([2]; oral, 0.3 mg/kg, Table 2, free base, 0.3 mg/kg daily) of 205 ng·h/mL, a clearance ([4]; intravenous) of 13.3 mL/min/kg and a Vd ([4]; intravenous, read-out: Rat Volume of Distribution) of 1 L/kg. The half-life ([4]; iv, I.V., read-out: Rat I.V. T1/2 (converted)) was 4.73 h, the bioavailability ([4]; po, 2 mg/kg, P.O., 2 mpk, read-out: Rat P.O. (2 mpk) % F) was 67% and the AUC(0-inf) ([4]; po, 2 mg/kg, P.O., 2 mpk, read-out: Rat P.O. (2 mpk) AUC0-inf) was 1710 ng·h/mL. The AUC(0-t) ([4]; po, 2 mg/kg, P.O., 2 mpk, read-out: Rat P.O. (2 mpk) AUC0-t) was 1700 ng·h/mL, the half-life ([4]; po, 2 mpk, P.O., read-out: Rat P.O. T1/2 (converted)) was 2.4 h and the “Rat Liver Microsome” value (Rat Liver Microsome) was 65 µL/min/mg. The “Human Liver Microsome” value (Human Liver Microsome) was 29 µL/min/mg.

From US7795254B2, “Benzomorpholine derivatives and methods of use” (Amgen Inc., priority 2007, dated 2010)
